According to patent US20100076089A1, “ANTIMICROBIAL GEL FORMULATIONS” (NovaBay Pharmaceuticals, Inc., priority 2008, published 2010):
“And” between values parts separate entries of the source, which are not always exact repeats. Identical values can stand only once.

Legend:
[1] = Amount of N,N-dichloro-2,2-dimethyltaurine an AA-1 formulation can hold; format: physicochemical
Description: The formulations may be made by mixing the N-halogenated or N,N-dihalogenated amine compound with the polymer using water. Water/oil emulsions, hydrating agents, wetting agents, surfactants, and the like may also be used. Concentrations of N-halogenated or N,N-dihalogenated amine compound may range from about 0.01% to about 5.0% (by weight). Concentrations of polymer may be from about 0.01% to about 10% (by weight) in water. For example, in certain implementations, the concentration of N-halogenated or N,N-dihalogenated compounds may range from about 0.1% to about 2.0% (by weight). Higher concentrations of polymer may be required to formulate higher concentrations of the N-halogenated or N,N-dihalogenated amine compound. For example, a 1% AA-1 formulation can hold up to about 2% N,N-dichloro-2,2-dimethyltaurine, whereas a 2% AA-1 formulation can hold up to about 3.5% of the same compound. These ratios may differ as different polymers and N-halogenated or N,N-dihalogenated amine compound are combined in a given formulation.

S. aureus 6538 biofilm = test: Calgary Biofilm Device (MBEC) assay, absorbance reading; format: cell-based; conditions: 24 hr biofilm, treatment 60 minutes, overnight regrowth in TSB; values greater than 0.1 indicate incomplete biofilm eradication
Method: S. aureus 6538 biofilm was grown in MBEC plates for 24 hr at 35° C. for 24 hr in TSB prior to treatment using the method describe above. The MBEC lid containing pegs coated with biofilm was first rinsed in a plate containing […] of PBS in each well for 1 minute, prior to treatment with a plate containing formulations for 60 minutes total. The lid was neutralized in a plate containing 200 μl D/E Neutralization broth in each well for 1 minute before transferring the lid into a plate containing 150 μl TSB in each well. Plate was incubated overnight at 35° C. Absorbance was read at 650 nm the following day.

S. aureus = test: Time-kill assay of antimicrobial gel formulations; format: cell-based; conditions: final inoculum 1.5×10^7 CFU/mL, room temperature
Method: Isolated S. aureus colonies were picked into 5 mL Tryptic Soy Broth (TSB) and grown for 4-6 hours at 37° C. Stock titers were determined by drop plate method. A working stock of S. aureus was prepared by dilution of the culture to a final inoculum of 1.5×10^8 colony forming units (CFU) per mL in sterile pH 4.0 saline. 900 μL of each tested formulation was placed in sterile glass tubes. A 0.1 mL aliquot of S. aureus suspension containing 1.5×10^8 CFU/mL was inoculated into the test sample container to give a final inoculum of 1.5×10^7 CFU/mL. The inoculated formulation was immediately mixed for 3 seconds following inoculation using a vortex and incubated at room temperature. A plate count was performed on the inoculated samples after 0, 5, 15, 30 and 60 minutes following inoculation as follows: • 0.1 mL of the inoculated antimicrobial test agent was placed into 0.9 mL of the D/E neutralizing broth • A 0.1 mL aliquot of each sample in D/E broth was drop plated on appropriately labeled agar dishes
All plates were incubated at 37° C. for 24 hours for bacterial growth assessment. At the conclusion of the incubation period the number of colonies present on the plates was counted. The total number of survivors at each time point was calculated by multiplying the CFU count obtained by the dilution factor.

S. aureus 29213 = test: Radial diffusion assay of antimicrobial gel formulations; format: cell-based; conditions: 100 μl of formulation
Method: Vials containing 0.6% NVC-422 (Drug Control), liquid, pH=5.0; 3% Polyox® WSR 205 (Placebo) Liquid, R.T. pH=5.0; 0.6% NVC-422/3% Polyox® WSR 205, Liquid, R.T., pH=5.0; 0.75% AA-1 (Placebo), 0.6% NVC-422/0.75% AA-1 and 0.23% AA-1 (alternate placebo) were prepared. The first three test articles appeared as clear liquids, while the last three appeared as gels. The samples were tested in the radial diffusion assay against S. aureus 29213. 100 μl of each formulation were tested in duplicate on two plates each (n=4 total).

CC(C)(CS(=O)(=O)O)N(Cl)Cl [NVC-422, N,N-dichloro-2,2-dimethyltaurine]
amount of compound the formulation can hold ([1]; 1% AA-1 formulation): up to 2% | amount of compound the formulation can hold ([1]; 2% AA-1 formulation): up to 3.5%

CC(C)(CS(=O)(=O)O)N(Cl)Cl [0.6% NVC-422, N,N-dichloro-2,2-dimethyltaurine]
Ave. Abs at 650 nm (S. aureus 6538 biofilm): 0.48 | time to complete kill (S. aureus; listed as 0.6% NVC-422 alone): 15 min | Clearing zone diameters, Sample 1 (S. aureus 29213; pH 5.0): 15 mm | Clearing zone diameters, Sample 2 (S. aureus 29213; pH 5.0): 16 mm | Clearing zone diameters, Sample 3 (S. aureus 29213; pH 5.0): 16 mm | Clearing zone diameters, Sample 4 (S. aureus 29213; pH 5.0): 14 mm | Clearing zone diameters, Average +/− SD (S. aureus 29213; pH 5.0, n=4, pH 5): 15.3 mm and 15.3 +/− 1.0 mm

CC(C)(CS(=O)(=O)O)N(Cl)Cl [0.3% NVC-422 alone, N,N-dichloro-2,2-dimethyltaurine]
time to complete kill (S. aureus): 60 min
